Test results: ChEMBL document CHEMBL6178019, “Discovery of CYP1A1 Inhibitors for Host-Directed Therapy against Sepsis” (J Med Chem, 2025)

The compounds below were run against T1, CYP1A1 (Homo sapiens, UniProt P04798) (assay: Inhibition of CYP1A1 in human Caco-2 cells at 5 uM incubated for 12 hrs by EROD assay relative to control). Conditions: not given.
T1 sequence (P04798 whole entry): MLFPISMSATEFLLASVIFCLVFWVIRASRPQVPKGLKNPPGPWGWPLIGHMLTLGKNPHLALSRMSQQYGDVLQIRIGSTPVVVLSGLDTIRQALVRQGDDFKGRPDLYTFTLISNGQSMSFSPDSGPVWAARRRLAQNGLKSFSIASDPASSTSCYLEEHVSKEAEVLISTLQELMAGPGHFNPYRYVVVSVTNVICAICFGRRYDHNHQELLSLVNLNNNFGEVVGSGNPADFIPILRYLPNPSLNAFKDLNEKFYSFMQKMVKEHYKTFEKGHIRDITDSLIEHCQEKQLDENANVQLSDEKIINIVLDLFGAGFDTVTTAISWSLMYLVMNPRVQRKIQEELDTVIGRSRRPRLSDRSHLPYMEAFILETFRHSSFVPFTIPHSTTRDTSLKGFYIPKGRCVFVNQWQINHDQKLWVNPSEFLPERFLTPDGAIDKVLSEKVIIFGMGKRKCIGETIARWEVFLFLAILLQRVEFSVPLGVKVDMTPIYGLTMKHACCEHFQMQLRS
Format: cell-based

Row | Structure (SMILES) | inhibition at 12 h, 5 µM
1 | Cn1c(=O)n(C)c2cc(C(=O)/C=C/c3cccs3)ccc21 | ~80%
2 | Cn1c(=O)n(C)c2cc(C(=O)/C=C/c3ccccc3F)ccc21 | 100%
3 | Cn1c(=O)n(C)c2cc(C(=O)/C=C/c3ccsc3)ccc21 | ~80%

What follows are compounds tested against T2, Cytochrome P450 1A1 (Homo sapiens, UniProt P04798) (assay: Inhibition of CYP1A1 in human Caco-2 cells incubated for 12 hrs by EROD assay). Conditions: caco-2, 12 h, at 50 to 5000 nM, dose 50-5000 nM.
T2 sequence (P04798 whole entry): T1 sequence (P04798 whole entry)
Format: cell-based

Row | Structure (SMILES) | inhibition (INH)
4 | Cn1c(=O)n(C)c2cc(C(=O)/C=C/c3ccccc3F)ccc21 | Dose-dependent-effect

These compounds were tested against T1, CYP1A1 (assay: Inhibition of CYP1A1 in human Caco-2 cells assessed as relative activity by measuring fold change at 500 nM incubated for 12 hrs by EROD assay relative to control). Conditions: read-out: FC.
Format: cell-based

Row | Structure (SMILES) | fold induction at 12 h, 0.5 µM
5 | Cn1c(=O)n(C)c2cc(C(=O)/C=C/c3cccs3)ccc21 | 0.45
6 | Cn1c(=O)n(C)c2cc(C(=O)/C=C/c3cc4ccccc4o3)ccc21 | 0.66
7 | Cn1c(=O)n(C)c2cc(C(=O)/C=C/c3ccccc3F)ccc21 | 0.32
8 | C#Cc1ccc(/C=C/C(=O)c2ccc(N(C)C(C)=O)cc2)cc1 | 0.81
9 | Cn1c(=O)n(C)c2cc(C(=O)/C=C/c3ccc(C(C)(C)C)cc3)ccc21 | 0.98
10 | Cn1c(=O)n(C)c2cc(C(=O)/C=C/c3c(F)c(F)c(F)c(F)c3F)ccc21 | 0.8
11 | Cc1ccc(/C=C/C(=O)c2ccc3c(c2)n(C)c(=O)n3C)cn1 | 0.66
12 | Cn1c(=O)n(C)c2cc(C(=O)/C=C/c3cc4ccccc4s3)ccc21 | 0.81
13 | CC(C)=CCC/C(C)=C/COc1c2ccoc2cc2oc(=O)ccc12 [BERGAMOTTIN] | 0.19
14 | C#Cc1cccc(/C=C/C(=O)c2ccc3c(c2)n(C)c(=O)n3C)c1 | 0.18
15 | Cn1c(=O)n(C)c2cc(C(=O)/C=C/c3ccsc3)ccc21 | 0.43
16 | Cn1c(=O)n(C)c2cc(C(=O)/C=C/c3ccc([N+](=O)[O-])o3)ccc21 | 0.71
17 | Cn1c(=O)n(C)c2cc(C(=O)/C=C/c3ccc(-c4ccccc4)cc3)ccc21 | 0.75
18 | Cn1c(=O)n(C)c2cc(C(=O)/C=C/c3ccccc3P(c3ccccc3)c3ccccc3)ccc21 | 0.72
19 | Cn1c(=O)n(C)c2cc(C(=O)/C=C/c3ccccc3)ccc21 | 0.71
20 | Cn1c(=O)n(C)c2cc(C(=O)/C=C/c3ccc(I)o3)ccc21 | 0.5
21 | C#Cc1ccc(/C=C/C(=O)c2ccc3c(c2)n(C)c(=O)n3C)cc1 | 0.22
22 | C#Cc1ccc(/C=C/C(=O)c2ccccc2)cc1 | 0.6

The compounds below were run against T2, Cytochrome P450 1A1 (assay: Inhibition of CYP1A1 in human Caco-2 cells assessed as relative activity by measuring fold change at 5.0 uM incubated for 12 hrs by EROD assay relative to control). Conditions: caco-2, 12 h.
Format: cell-based

Row | Structure (SMILES) | fold change (FC)
23 | Cn1c(=O)n(C)c2cc(C(=O)/C=C/c3cccs3)ccc21 | 0.18
24 | Cn1c(=O)n(C)c2cc(C(=O)/C=C/c3cc4ccccc4o3)ccc21 | 0.31
25 | Cn1c(=O)n(C)c2cc(C(=O)/C=C/c3ccccc3F)ccc21 | 0.04
26 | C#Cc1ccc(/C=C/C(=O)c2ccc(N(C)C(C)=O)cc2)cc1 | 0.78
27 | Cn1c(=O)n(C)c2cc(C(=O)/C=C/c3ccc(C(C)(C)C)cc3)ccc21 | 0.97
28 | Cn1c(=O)n(C)c2cc(C(=O)/C=C/c3c(F)c(F)c(F)c(F)c3F)ccc21 | 0.34
29 | Cc1ccc(/C=C/C(=O)c2ccc3c(c2)n(C)c(=O)n3C)cn1 | 0.08
30 | Cn1c(=O)n(C)c2cc(C(=O)/C=C/c3cc4ccccc4s3)ccc21 | 0.56
31 | CC(C)=CCC/C(C)=C/COc1c2ccoc2cc2oc(=O)ccc12 [BERGAMOTTIN] | 0.05
32 | C#Cc1cccc(/C=C/C(=O)c2ccc3c(c2)n(C)c(=O)n3C)c1 | 0.01
33 | Cn1c(=O)n(C)c2cc(C(=O)/C=C/c3ccsc3)ccc21 | 0.19
34 | Cn1c(=O)n(C)c2cc(C(=O)/C=C/c3ccc([N+](=O)[O-])o3)ccc21 | 0.28
35 | Cn1c(=O)n(C)c2cc(C(=O)/C=C/c3ccc(-c4ccccc4)cc3)ccc21 | 0.15
36 | Cn1c(=O)n(C)c2cc(C(=O)/C=C/c3ccccc3P(c3ccccc3)c3ccccc3)ccc21 | 0.16
37 | Cn1c(=O)n(C)c2cc(C(=O)/C=C/c3ccccc3)ccc21 | 0.28
38 | Cn1c(=O)n(C)c2cc(C(=O)/C=C/c3ccc(I)o3)ccc21 | 0.18
39 | C#Cc1ccc(/C=C/C(=O)c2ccc3c(c2)n(C)c(=O)n3C)cc1 | 0.07
40 | C#Cc1ccc(/C=C/C(=O)c2ccccc2)cc1 | 0.3

The compounds below were run against T3, CYP1A1 (Mus musculus, UniProt P00184) (assay: Inhibition of CYP1A1 in mouse RAW264.7 cells assessed as relative activity by measuring fold change at 500 nM incubated for 12 hrs by EROD assay relative to control). Conditions: read-out: FC.
T3 sequence (P00184 whole entry): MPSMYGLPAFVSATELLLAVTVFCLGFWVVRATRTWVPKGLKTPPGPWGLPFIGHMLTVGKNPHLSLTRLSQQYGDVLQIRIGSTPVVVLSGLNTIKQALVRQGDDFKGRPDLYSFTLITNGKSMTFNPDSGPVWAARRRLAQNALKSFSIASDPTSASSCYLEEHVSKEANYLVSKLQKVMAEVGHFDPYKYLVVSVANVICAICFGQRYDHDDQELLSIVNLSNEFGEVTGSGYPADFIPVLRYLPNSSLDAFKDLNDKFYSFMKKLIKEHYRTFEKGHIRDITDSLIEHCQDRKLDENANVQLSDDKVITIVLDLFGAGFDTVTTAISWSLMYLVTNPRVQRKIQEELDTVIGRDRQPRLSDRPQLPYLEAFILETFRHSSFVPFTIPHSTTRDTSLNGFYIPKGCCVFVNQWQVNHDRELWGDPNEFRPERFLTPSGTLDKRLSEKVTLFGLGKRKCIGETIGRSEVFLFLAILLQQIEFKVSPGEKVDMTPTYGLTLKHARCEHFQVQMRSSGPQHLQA
Format: cell-based

Row | Structure (SMILES) | fold induction at 12 h, 0.5 µM
41 | Cn1c(=O)n(C)c2cc(C(=O)/C=C/c3cccs3)ccc21 | 0.38
42 | Cn1c(=O)n(C)c2cc(C(=O)/C=C/c3cc4ccccc4o3)ccc21 | 0.82
43 | Cn1c(=O)n(C)c2cc(C(=O)/C=C/c3ccccc3F)ccc21 | 1.17
44 | C#Cc1ccc(/C=C/C(=O)c2ccc(N(C)C(C)=O)cc2)cc1 | 1.16
45 | Cn1c(=O)n(C)c2cc(C(=O)/C=C/c3ccc(C(C)(C)C)cc3)ccc21 | 0.64
46 | Cn1c(=O)n(C)c2cc(C(=O)/C=C/c3c(F)c(F)c(F)c(F)c3F)ccc21 | 0.69
47 | Cc1ccc(/C=C/C(=O)c2ccc3c(c2)n(C)c(=O)n3C)cn1 | 0.77
48 | Cn1c(=O)n(C)c2cc(C(=O)/C=C/c3cc4ccccc4s3)ccc21 | 1.12
49 | CC(C)=CCC/C(C)=C/COc1c2ccoc2cc2oc(=O)ccc12 [BERGAMOTTIN] | 0.44
50 | C#Cc1cccc(/C=C/C(=O)c2ccc3c(c2)n(C)c(=O)n3C)c1 | 1.07
51 | Cn1c(=O)n(C)c2cc(C(=O)/C=C/c3ccsc3)ccc21 | 0.58
52 | Cn1c(=O)n(C)c2cc(C(=O)/C=C/c3ccc([N+](=O)[O-])o3)ccc21 | 0.95
53 | Cn1c(=O)n(C)c2cc(C(=O)/C=C/c3ccc(-c4ccccc4)cc3)ccc21 | 0.96
54 | Cn1c(=O)n(C)c2cc(C(=O)/C=C/c3ccccc3P(c3ccccc3)c3ccccc3)ccc21 | 0.86
55 | Cn1c(=O)n(C)c2cc(C(=O)/C=C/c3ccccc3)ccc21 | 0.95
56 | Cn1c(=O)n(C)c2cc(C(=O)/C=C/c3ccc(I)o3)ccc21 | 0.75
57 | C#Cc1ccc(/C=C/C(=O)c2ccc3c(c2)n(C)c(=O)n3C)cc1 | 0.63
58 | C#Cc1ccc(/C=C/C(=O)c2ccccc2)cc1 | 0.52

Each compound was assayed against T3, CYP1A1 (assay: Inhibition of CYP1A1 in mouse RAW264.7 cells assessed as relative activity by measuring fold change at 5 uM incubated for 12 hrs by EROD assay relative to control). Conditions: read-out: FC.
Format: cell-based

Row | Structure (SMILES) | fold induction at 12 h, 5 µM
59 | Cn1c(=O)n(C)c2cc(C(=O)/C=C/c3cccs3)ccc21 | 0.23
60 | Cn1c(=O)n(C)c2cc(C(=O)/C=C/c3cc4ccccc4o3)ccc21 | 0.52
61 | Cn1c(=O)n(C)c2cc(C(=O)/C=C/c3ccccc3F)ccc21 | 1.02
62 | C#Cc1ccc(/C=C/C(=O)c2ccc(N(C)C(C)=O)cc2)cc1 | 1.04
63 | Cn1c(=O)n(C)c2cc(C(=O)/C=C/c3ccc(C(C)(C)C)cc3)ccc21 | 0.51
64 | Cn1c(=O)n(C)c2cc(C(=O)/C=C/c3c(F)c(F)c(F)c(F)c3F)ccc21 | 0.43
65 | Cc1ccc(/C=C/C(=O)c2ccc3c(c2)n(C)c(=O)n3C)cn1 | 0.2
66 | Cn1c(=O)n(C)c2cc(C(=O)/C=C/c3cc4ccccc4s3)ccc21 | 0.77
67 | CC(C)=CCC/C(C)=C/COc1c2ccoc2cc2oc(=O)ccc12 [BERGAMOTTIN] | 0.18
68 | C#Cc1cccc(/C=C/C(=O)c2ccc3c(c2)n(C)c(=O)n3C)c1 | 0.14
69 | Cn1c(=O)n(C)c2cc(C(=O)/C=C/c3ccsc3)ccc21 | 0.32
70 | Cn1c(=O)n(C)c2cc(C(=O)/C=C/c3ccc([N+](=O)[O-])o3)ccc21 | 0.24
71 | Cn1c(=O)n(C)c2cc(C(=O)/C=C/c3ccc(-c4ccccc4)cc3)ccc21 | 0.81
72 | Cn1c(=O)n(C)c2cc(C(=O)/C=C/c3ccccc3P(c3ccccc3)c3ccccc3)ccc21 | 0.31
73 | Cn1c(=O)n(C)c2cc(C(=O)/C=C/c3ccccc3)ccc21 | 0.22
74 | Cn1c(=O)n(C)c2cc(C(=O)/C=C/c3ccc(I)o3)ccc21 | 0.55
75 | C#Cc1ccc(/C=C/C(=O)c2ccc3c(c2)n(C)c(=O)n3C)cc1 | 0.19
76 | C#Cc1ccc(/C=C/C(=O)c2ccccc2)cc1 | 0.18

What follows are compounds tested against T3, CYP1A1 (assay: Inhibition of CYP1A1 in mouse RAW264.7 cells at 5 uM incubated for 12 hrs by EROD assay relative to control). Conditions: not given.
Format: cell-based

Row | Structure (SMILES) | inhibition at 12 h, 5 µM
77 | Cn1c(=O)n(C)c2cc(C(=O)/C=C/c3cccs3)ccc21 | ~80%
78 | Cn1c(=O)n(C)c2cc(C(=O)/C=C/c3ccsc3)ccc21 | ~80%
